Experimental data reported in PubChem BioAssay (NCI).
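Values below derive from 48-hour exposures of cells grown in 96-well plates, with endpoints linearly interpolated between the two concentrations bracketing the appropriate inhibition level. At the TGI there is no net growth.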

System: NCI-H226 lung
Experiment: DTP human tumour cell line panel, 48 h

Structure (SMILES)	TGI [µM]
O=C(CCC(=O)c1ccc(Cl)cc1)NO	> 100
Cc1coc2c1CC1(C)C(CCC(O)C1C)C2 (configuration not stated)	> 100
C=C(Br)C(C)(Cl)CCC(Br)C(C)(C)Cl (configuration not stated)	66.2

System: NCI-H23 lung
Experiment: DTP human tumour cell line panel, 48 h

Structure (SMILES)	TGI [µM]
O=C(CCC(=O)c1ccc(Cl)cc1)NO	> 100
O=C(O)CSc1ccc([N+](=O)[O-])cc1[N+](=O)[O-]	> 100
Cc1coc2c1CC1(C)C(CCC(O)C1C)C2 (configuration not stated)	> 100
C=C(Br)C(C)(Cl)CCC(Br)C(C)(C)Cl (configuration not stated)	> 100

System: NCI-H460 lung
Experiment: DTP human tumour cell line panel, 48 h

Structure (SMILES)	TGI [µM]
O=C(CCC(=O)c1ccc(Cl)cc1)NO	> 100
O=C(O)CSc1ccc([N+](=O)[O-])cc1[N+](=O)[O-]	> 100
Cc1coc2c1CC1(C)C(CCC(O)C1C)C2 (configuration not stated)	> 100
C=C(Br)C(C)(Cl)CCC(Br)C(C)(C)Cl (configuration not stated)	> 100

System: NCI-H522 lung
Experiment: DTP human tumour cell line panel, 48 h

Structure (SMILES)	TGI [µM]
O=C(CCC(=O)c1ccc(Cl)cc1)NO	> 100
O=C(O)CSc1ccc([N+](=O)[O-])cc1[N+](=O)[O-]	> 100
Cc1coc2c1CC1(C)C(CCC(O)C1C)C2 (configuration not stated)	> 100
C=C(Br)C(C)(Cl)CCC(Br)C(C)(C)Cl (configuration not stated)	> 100

System: NCI/ADR-RES ovarian
Experiment: DTP human tumour cell line panel, 48 h

Structure (SMILES)	TGI [µM]
O=C(CCC(=O)c1ccc(Cl)cc1)NO	> 100
O=C(O)CSc1ccc([N+](=O)[O-])cc1[N+](=O)[O-]	> 100
Cc1coc2c1CC1(C)C(CCC(O)C1C)C2 (configuration not stated)	> 100
C=C(Br)C(C)(Cl)CCC(Br)C(C)(C)Cl (configuration not stated)	> 100

System: OVCAR-3 ovarian
Experiment: DTP human tumour cell line panel, 48 h

Structure (SMILES)	TGI [µM]
O=C(CCC(=O)c1ccc(Cl)cc1)NO	> 100
O=C(O)CSc1ccc([N+](=O)[O-])cc1[N+](=O)[O-]	> 100
Cc1coc2c1CC1(C)C(CCC(O)C1C)C2 (configuration not stated)	> 100
C=C(Br)C(C)(Cl)CCC(Br)C(C)(C)Cl (configuration not stated)	35.6

System: OVCAR-4 ovarian
Experiment: DTP human tumour cell line panel, 48 h

Structure (SMILES)	TGI [µM]
O=C(CCC(=O)c1ccc(Cl)cc1)NO	> 100
O=C(O)CSc1ccc([N+](=O)[O-])cc1[N+](=O)[O-]	> 100
Cc1coc2c1CC1(C)C(CCC(O)C1C)C2 (configuration not stated)	> 100
C=C(Br)C(C)(Cl)CCC(Br)C(C)(C)Cl (configuration not stated)	> 100

System: OVCAR-5 ovarian
Experiment: DTP human tumour cell line panel, 48 h

Structure (SMILES)	TGI [µM]
O=C(CCC(=O)c1ccc(Cl)cc1)NO	> 100
O=C(O)CSc1ccc([N+](=O)[O-])cc1[N+](=O)[O-]	> 100
Cc1coc2c1CC1(C)C(CCC(O)C1C)C2 (configuration not stated)	> 100
C=C(Br)C(C)(Cl)CCC(Br)C(C)(C)Cl (configuration not stated)	> 100

System: OVCAR-8 ovarian
Experiment: DTP human tumour cell line panel, 48 h

Structure (SMILES)	TGI [µM]
O=C(CCC(=O)c1ccc(Cl)cc1)NO	> 100
O=C(O)CSc1ccc([N+](=O)[O-])cc1[N+](=O)[O-]	> 100
Cc1coc2c1CC1(C)C(CCC(O)C1C)C2 (configuration not stated)	> 100
C=C(Br)C(C)(Cl)CCC(Br)C(C)(C)Cl (configuration not stated)	> 100

System: PC-3 prostate
Experiment: DTP human tumour cell line panel, 48 h

Structure (SMILES)	TGI [µM]
O=C(CCC(=O)c1ccc(Cl)cc1)NO	> 100
O=C(O)CSc1ccc([N+](=O)[O-])cc1[N+](=O)[O-]	> 100
Cc1coc2c1CC1(C)C(CCC(O)C1C)C2 (configuration not stated)	> 100
C=C(Br)C(C)(Cl)CCC(Br)C(C)(C)Cl (configuration not stated)	> 100

System: RPMI-8226 leukemia
Experiment: DTP human tumour cell line panel, 48 h

Structure (SMILES)	TGI [µM]
O=C(CCC(=O)c1ccc(Cl)cc1)NO	> 100
O=C(O)CSc1ccc([N+](=O)[O-])cc1[N+](=O)[O-]	> 100
Cc1coc2c1CC1(C)C(CCC(O)C1C)C2 (configuration not stated)	> 100

System: RXF 393 renal
Experiment: DTP human tumour cell line panel, 48 h

Structure (SMILES)	TGI [µM]
O=C(CCC(=O)c1ccc(Cl)cc1)NO	> 100
O=C(O)CSc1ccc([N+](=O)[O-])cc1[N+](=O)[O-]	> 100
Cc1coc2c1CC1(C)C(CCC(O)C1C)C2 (configuration not stated)	> 100
C=C(Br)C(C)(Cl)CCC(Br)C(C)(C)Cl (configuration not stated)	65.1

System: SF-268 CNS
Experiment: DTP human tumour cell line panel, 48 h

Structure (SMILES)	TGI [µM]
O=C(CCC(=O)c1ccc(Cl)cc1)NO	> 100
O=C(O)CSc1ccc([N+](=O)[O-])cc1[N+](=O)[O-]	> 100
Cc1coc2c1CC1(C)C(CCC(O)C1C)C2 (configuration not stated)	> 100
C=C(Br)C(C)(Cl)CCC(Br)C(C)(C)Cl (configuration not stated)	> 100

System: SF-295 CNS
Experiment: DTP human tumour cell line panel, 48 h

Structure (SMILES)	TGI [µM]
O=C(CCC(=O)c1ccc(Cl)cc1)NO	> 100
O=C(O)CSc1ccc([N+](=O)[O-])cc1[N+](=O)[O-]	> 100
Cc1coc2c1CC1(C)C(CCC(O)C1C)C2 (configuration not stated)	> 100
C=C(Br)C(C)(Cl)CCC(Br)C(C)(C)Cl (configuration not stated)	> 100

System: SF-539 CNS
Experiment: DTP human tumour cell line panel, 48 h

Structure (SMILES)	TGI [µM]
O=C(CCC(=O)c1ccc(Cl)cc1)NO	> 100
Cc1coc2c1CC1(C)C(CCC(O)C1C)C2 (configuration not stated)	> 100
C=C(Br)C(C)(Cl)CCC(Br)C(C)(C)Cl (configuration not stated)	> 100

System: SK-MEL-2 melanoma
Experiment: DTP human tumour cell line panel, 48 h

Structure (SMILES)	TGI [µM]
O=C(CCC(=O)c1ccc(Cl)cc1)NO	> 100
O=C(O)CSc1ccc([N+](=O)[O-])cc1[N+](=O)[O-]	> 100
Cc1coc2c1CC1(C)C(CCC(O)C1C)C2 (configuration not stated)	> 100

System: SK-MEL-28 melanoma
Experiment: DTP human tumour cell line panel, 48 h

Structure (SMILES)	TGI [µM]
O=C(CCC(=O)c1ccc(Cl)cc1)NO	> 100
O=C(O)CSc1ccc([N+](=O)[O-])cc1[N+](=O)[O-]	> 100
C=C(Br)C(C)(Cl)CCC(Br)C(C)(C)Cl (configuration not stated)	> 100

System: SK-MEL-5 melanoma
Experiment: DTP human tumour cell line panel, 48 h

Structure (SMILES)	TGI [µM]
O=C(CCC(=O)c1ccc(Cl)cc1)NO	> 100
Cc1coc2c1CC1(C)C(CCC(O)C1C)C2 (configuration not stated)	> 100
C=C(Br)C(C)(Cl)CCC(Br)C(C)(C)Cl (configuration not stated)	> 100

System: SK-OV-3 ovarian
Experiment: DTP human tumour cell line panel, 48 h

Structure (SMILES)	TGI [µM]
O=C(CCC(=O)c1ccc(Cl)cc1)NO	> 100
O=C(O)CSc1ccc([N+](=O)[O-])cc1[N+](=O)[O-]	> 100
Cc1coc2c1CC1(C)C(CCC(O)C1C)C2 (configuration not stated)	> 100
C=C(Br)C(C)(Cl)CCC(Br)C(C)(C)Cl (configuration not stated)	> 100

System: SN12C renal
Experiment: DTP human tumour cell line panel, 48 h

Structure (SMILES)	TGI [µM]
O=C(CCC(=O)c1ccc(Cl)cc1)NO	> 100
O=C(O)CSc1ccc([N+](=O)[O-])cc1[N+](=O)[O-]	> 100
Cc1coc2c1CC1(C)C(CCC(O)C1C)C2 (configuration not stated)	> 100
C=C(Br)C(C)(Cl)CCC(Br)C(C)(C)Cl (configuration not stated)	> 100

System: SNB-19 CNS
Experiment: DTP human tumour cell line panel, 48 h

Structure (SMILES)	TGI [µM]
O=C(CCC(=O)c1ccc(Cl)cc1)NO	> 100
O=C(O)CSc1ccc([N+](=O)[O-])cc1[N+](=O)[O-]	> 100
Cc1coc2c1CC1(C)C(CCC(O)C1C)C2 (configuration not stated)	> 100
C=C(Br)C(C)(Cl)CCC(Br)C(C)(C)Cl (configuration not stated)	> 100

System: SNB-75 CNS
Experiment: DTP human tumour cell line panel, 48 h

Structure (SMILES)	TGI [µM]
O=C(CCC(=O)c1ccc(Cl)cc1)NO	> 100
O=C(O)CSc1ccc([N+](=O)[O-])cc1[N+](=O)[O-]	> 100
Cc1coc2c1CC1(C)C(CCC(O)C1C)C2 (configuration not stated)	> 100

System: SR leukemia
Experiment: DTP human tumour cell line panel, 48 h

Structure (SMILES)	TGI [µM]
O=C(CCC(=O)c1ccc(Cl)cc1)NO	> 100
O=C(O)CSc1ccc([N+](=O)[O-])cc1[N+](=O)[O-]	> 100
Cc1coc2c1CC1(C)C(CCC(O)C1C)C2 (configuration not stated)	> 100
C=C(Br)C(C)(Cl)CCC(Br)C(C)(C)Cl (configuration not stated)	> 100

System: SW-620 colon
Experiment: DTP human tumour cell line panel, 48 h

Structure (SMILES)	TGI [µM]
O=C(CCC(=O)c1ccc(Cl)cc1)NO	> 100
O=C(O)CSc1ccc([N+](=O)[O-])cc1[N+](=O)[O-]	> 100
Cc1coc2c1CC1(C)C(CCC(O)C1C)C2 (configuration not stated)	> 100
C=C(Br)C(C)(Cl)CCC(Br)C(C)(C)Cl (configuration not stated)	94.7

System: T-47D breast
Experiment: DTP human tumour cell line panel, 48 h

Structure (SMILES)	TGI [µM]
O=C(CCC(=O)c1ccc(Cl)cc1)NO	> 100
O=C(O)CSc1ccc([N+](=O)[O-])cc1[N+](=O)[O-]	> 100
Cc1coc2c1CC1(C)C(CCC(O)C1C)C2 (configuration not stated)	> 100
C=C(Br)C(C)(Cl)CCC(Br)C(C)(C)Cl (configuration not stated)	> 100

System: TK-10 renal
Experiment: DTP human tumour cell line panel, 48 h

Structure (SMILES)	TGI [µM]
O=C(CCC(=O)c1ccc(Cl)cc1)NO	> 100
O=C(O)CSc1ccc([N+](=O)[O-])cc1[N+](=O)[O-]	> 100
Cc1coc2c1CC1(C)C(CCC(O)C1C)C2 (configuration not stated)	> 100
C=C(Br)C(C)(Cl)CCC(Br)C(C)(C)Cl (configuration not stated)	> 100

System: U251 CNS
Experiment: DTP human tumour cell line panel, 48 h

Structure (SMILES)	TGI [µM]
O=C(CCC(=O)c1ccc(Cl)cc1)NO	> 100
O=C(O)CSc1ccc([N+](=O)[O-])cc1[N+](=O)[O-]	> 100
Cc1coc2c1CC1(C)C(CCC(O)C1C)C2 (configuration not stated)	> 100
C=C(Br)C(C)(Cl)CCC(Br)C(C)(C)Cl (configuration not stated)	> 100

System: UACC-257 melanoma
Experiment: DTP human tumour cell line panel, 48 h

Structure (SMILES)	TGI [µM]
O=C(CCC(=O)c1ccc(Cl)cc1)NO	> 100
O=C(O)CSc1ccc([N+](=O)[O-])cc1[N+](=O)[O-]	> 100
Cc1coc2c1CC1(C)C(CCC(O)C1C)C2 (configuration not stated)	> 100
C=C(Br)C(C)(Cl)CCC(Br)C(C)(C)Cl (configuration not stated)	85

System: UACC-62 melanoma
Experiment: DTP human tumour cell line panel, 48 h

Structure (SMILES)	TGI [µM]
O=C(CCC(=O)c1ccc(Cl)cc1)NO	> 100
O=C(O)CSc1ccc([N+](=O)[O-])cc1[N+](=O)[O-]	> 100
Cc1coc2c1CC1(C)C(CCC(O)C1C)C2 (configuration not stated)	> 100
C=C(Br)C(C)(Cl)CCC(Br)C(C)(C)Cl (configuration not stated)	> 100

System: UO-31 renal
Experiment: DTP human tumour cell line panel, 48 h

Structure (SMILES)	TGI [µM]
O=C(CCC(=O)c1ccc(Cl)cc1)NO	> 100
O=C(O)CSc1ccc([N+](=O)[O-])cc1[N+](=O)[O-]	> 100
C=C(Br)C(C)(Cl)CCC(Br)C(C)(C)Cl (configuration not stated)	> 100
